The values that follow are results of earlier work, collected in publication PMC10323144, “Garbage in, garbage out: how reliable training data improved a virtual screening approach against SARS-CoV-2 MPro” (Frontiers in Pharmacology, 2023).

Each structure is given as a SMILES string.

In the series the test system is MPro. The conditions noted are these: compiled from peer-reviewed sources (287 compounds) ref the 18 original articles; cited from earlier work.
Consider `O=c1cc(-c2ccc(O)c(O)c2)oc2cc(O[C@@H]3O[C@H](CO)[C@@H](O)[C@H](O)[C@H]3O)cc(O)c12` [Luteoloside], for which the “Class (MPro activity class)” value is 0 (compounds with IC50 > 20 μM, percentage inhibition <80% at 20 µM or 50 μM, or percentage enzyme inhibition <50% at 10 µM were labelled as INACTIVE).
Take `O=c1[nH]cc(-c2cc(-c3cc(Cl)cc(OCc4ccccc4)c3)c(=O)n(-c3cccnc3)c2)c(=O)[nH]1` [compound 14]: the “Class (MPro activity class)” value is reported as 1 (Compounds with IC50 < 10 µM or with a percentage of enzyme inhibition >50% at 10 µM were labelled as ACTIVE).
On to `N[C@@H](CC(=O)N1CCn2c(nnc2C(F)(F)F)C1)Cc1cc(F)c(F)cc1F` [Sitagliptin], for which the “Class (MPro activity class)” value is 0 (compounds with IC50 > 20 μM, percentage inhibition <80% at 20 µM or 50 μM, or percentage enzyme inhibition <50% at 10 µM were labelled as INACTIVE).
`CC(C)(F)C[C@H](N[C@@H](c1ccc(-c2ccc(S(C)(=O)=O)cc2)cc1)C(F)(F)F)C(=O)NC1(C#N)CC1` [Odanacatib]: the “Class (MPro activity class)” value was 0 (compounds with IC50 > 20 μM, percentage inhibition <80% at 20 µM or 50 μM, or percentage enzyme inhibition <50% at 10 µM were labelled as INACTIVE).
For the compound `CC(C)c1nc(CN(C)C(=O)N[C@H](C(=O)N[C@@H](Cc2ccccc2)C[C@H](O)[C@H](Cc2ccccc2)NC(=O)OCc2cncs2)C(C)C)cs1` [Ritonavir], the “Class (MPro activity class)” value was 0 (compounds with IC50 > 20 μM, percentage inhibition <80% at 20 µM or 50 μM, or percentage enzyme inhibition <50% at 10 µM were labelled as INACTIVE).
Take `N#C[C@@H]1C[C@@H]2C[C@@H]2N1C(=O)[C@@H](N)C12CC3CC(CC(O)(C3)C1)C2` [Saxagliptin]: the “Class (MPro activity class)” value is on record as 0 (compounds with IC50 > 20 μM, percentage inhibition <80% at 20 µM or 50 μM, or percentage enzyme inhibition <50% at 10 µM were labelled as INACTIVE).
Take `O=C(CCl)N1CCN(Cc2cc(Cl)ccc2CNC(=O)N2CCOCC2)CC1` [STU-CHA-6cae54d3-1]: the “Class (MPro activity class)” value was 1 (Compounds with IC50 < 10 µM or with a percentage of enzyme inhibition >50% at 10 µM were labelled as ACTIVE).
For `COc1cccc2[nH]c(C(=O)NC(CC(C)C)C(=O)NC(CC3CCNC3=O)C(=O)CO)cc12` (centres unmarked) [PF-00835231], the “Class (MPro activity class)” value is reported as 1 (Compounds with IC50 < 10 µM or with a percentage of enzyme inhibition >50% at 10 µM were labelled as ACTIVE).
In the case of `CC(C)OC(=O)[C@H](C)N[P@](=O)(OC[C@H]1O[C@@H](n2ccc(=O)[nH]c2=O)[C@](C)(F)[C@@H]1O)Oc1ccccc1` [Sofosbuvir], the “Class (MPro activity class)” value is 0 (compounds with IC50 > 20 μM, percentage inhibition <80% at 20 µM or 50 μM, or percentage enzyme inhibition <50% at 10 µM were labelled as INACTIVE).
As for `Cc1nn(-c2ccccc2)c(Nc2cccc(C(F)(F)F)c2)c1NS(C)(=O)=O` [LASSBio-428 (10)], the “Class (MPro activity class)” value was 0 (compounds with IC50 > 20 μM, percentage inhibition <80% at 20 µM or 50 μM, or percentage enzyme inhibition <50% at 10 µM were labelled as INACTIVE).
Consider `O=c1cc(-c2ccccc2)oc2cc(O)cc(O)c12` [Chrysin], for which the “Class (MPro activity class)” value is on record as 0 (compounds with IC50 > 20 μM, percentage inhibition <80% at 20 µM or 50 μM, or percentage enzyme inhibition <50% at 10 µM were labelled as INACTIVE).
Regarding `O=C(O)C1OC(Oc2cc(O)c3c(=O)cc(-c4ccccc4)oc3c2)C(O)C(O)C1O` [Chrysin-7-O-β-D-glucoronide], the “Class (MPro activity class)” value is listed as 0 (compounds with IC50 > 20 μM, percentage inhibition <80% at 20 µM or 50 μM, or percentage enzyme inhibition <50% at 10 µM were labelled as INACTIVE).
Regarding `CCOC(=O)[C@H]1O[C@@H]1C(=O)N[C@@H](CC(C)C)C(=O)NCCC(C)C` [Aloxistatin], the “Class (MPro activity class)” value is listed as 0 (compounds with IC50 > 20 μM, percentage inhibition <80% at 20 µM or 50 μM, or percentage enzyme inhibition <50% at 10 µM were labelled as INACTIVE).
With `O=C(Nc1ccc(N(Cc2ccsc2)C(=O)Cn2nnc3ccccc32)cc1)C1CC1` [16e (ML300)], the “Class (MPro activity class)” value is recorded as 1 (Compounds with IC50 < 10 µM or with a percentage of enzyme inhibition >50% at 10 µM were labelled as ACTIVE).
